Marks after values point to notes of the source that are not given here.
Assay: Determination of bio-accumulation: urinary clearance pharmacokinetic study in rats, with observation for toxicity and gross necropsy
Assay type: in vivo, male Sprague Dawley rats
Conditions: rat, oral gavage
Description: The perfluorinated and partially fluorinated carboxylates were evaluated for urinary clearance using a pharmacokinetic study in rats. The goal was to measure the total amount of parent compound eliminated via urinary output and estimate the rate of elimination. The study was approved by the IACUC (Institutional Animal Care and Use Committees) and was performed in 3M Company's AAALAC (Association for Assessment and Accreditation of Laboratory Animal Care)-accredited facility.
The study utilized male Sprague Dawley rats, 6 to 8 weeks of age, and approximately 200 to 250 g body weight at study onset. The test compounds of table 2 were administered at a dose of 73 micro Moles per kg body weight in rats (N=3 animals per tested compound). All test compounds were prepared in sterile deionized water and given to rats via oral gavage. After test compounds administration, the rats were housed individually in metabolism cages for urine collection: 0 to 6 hours, 6 to 24 hours, 24 to 48 hours and […]. Animals were observed throughout the study for clinical signs of toxicity. Gross necropsy was performed at the termination of each study (96 hours post-dose) with sera and liver samples being retained from each animal.
The concentration of the parent compound or metabolites thereof were quantitatively measured via fluorine NMR on each urine sample for each animal at each time point based on internally added standards.

[1] = 73 micro Moles per kg, no parent compound observed in the urine

SMILES	% Recovery (96 h), based on elimination of the major metabolite C3F7—O—CHFCOO− [1]	T½ (h), based on elimination of the major metabolite C3F7—O—CHFCOO− [1]	T½ (73 micro Moles per kg body weight, parent compound in urine by fluorine NMR, exponential least squares curve fitting) [h]
N.O=C(O)COC(F)(F)C(F)OC(F)(F)C(F)(F)C(F)(F)F (stereo not drawn) [Compound 16, C3F7—O—CFH—CF2—O—CH2—COONH4]	65* %	13* h	
N.O=C(O)C(F)(F)OC(F)(F)C(F)(F)C(F)(F)OC(F)(F)F [Compound 1, CF3—O—(CF2)3—O—CF2—COONH4]			10

Reference: patent US7754795B2, “Coating composition” (3M Innovative Properties Company, priority 2006, dated 2010)
